Laboratory results published in patent publication US7332495B2 (priority 2002, dated 2008).

How the values were obtained:
Kunming mice = assay: Sedation: spontaneous activities recorded with alternating current tube; assay type: in vivo
Description: Kunming mice were used, with a male-female ratio of 50-50%. […] After 30 minutes, acetic acid (0.7%, […] i.p.) was injected and the number of writhes was observed during a 5-minute period after acetic acid administration. The inhibition ratio of the writhing threshold was calculated. The alternating current tube is used to record the spontaneous activities for measuring sedation.

rats [1] = assay: Defervescence in rats given Brewers' yeast; assay type: in vivo; settings: p.o., 60 mg/kg, Brewers' yeast s.c. 7%
rats [2] = assay: Conditional position preference in rats
Source text: A commercially available device for testing (Med Associates Inc.) was used. Measurements were automatically recorded by a computer.
The data are indicated by means of […], t-test was employed to compare the data in different groups. The rats were divided randomly into groups by weight, 12 for each group. They were positive control groups. […] The experiments were divided into stages of accommodation, training and test. Accommodation: Open the doors between black box and grey box and the door between white box and grey box. put the rats in from the grey box; let them run free in the training box for 15 minutes for 4 days. Training: The white box is with medicine while the black one is without it. The period training is 10 days, the first day with the medicine while the second day not; the third day with the medicine while the fourth day not, so on and so forth. When carrying out the training with medicine, 15 minutes after the rat is administrated (i.g.) with medicine, it is put into the white box for 30 minutes. When the training is without medicine, 15 minutes after the rat is administrated (i.g.) with saline, it is put into the black box for 30 minutes. Test: On the 11th day, the rat is put into the training box, with the door open. The time the rat stays in each box, and the number of time it enters during 15 minutes were determined, and the percentage of the time staying in the white box to the time together in white box and black box is calculated (Table 12).

Acute toxicity in mice = settings: mouse, in vivo, po, Bliss method
Acute toxicity in rats = settings: rat, in vivo, po, Bliss method
rats [3] = assay: Spontaneous withdrawal tests (body weight); assay type: in vivo
[4] = IV-12-1 (75 mg/kg), 12 h after withdrawal
[5] = IV-12-1 (75 mg/kg), 24 h after withdrawal
[6] = IV-12-1 (75 mg/kg), 42 h after withdrawal
[7] = IV-12-1 (75 mg/kg), 48 h after withdrawal
[8] = IV-12-1 (75 mg/kg), 66 h after withdrawal
[9] = IV-12-1 (75 mg/kg), 84 h after withdrawal
[10] = IV-12-1 (75 mg/kg), 90 h after withdrawal
[11] = IV-12-1 (75 mg/kg), 96 h after withdrawal
[12] = IV-12-1 (75 mg/kg), 108 h after withdrawal
[13] = IV-12-1 (75 mg/kg), 114 h after withdrawal
[14] = IV-12-1 (75 mg/kg), 120 h after withdrawal
[15] = IV-12-1 (75 mg/kg), 132 h after withdrawal
[16] = IV-12-1 (75 mg/kg), 138 h after withdrawal
[17] = IV-12-1 (75 mg/kg), 144 h after withdrawal
[18] = IV-12-1 (75 mg/kg), 156 h after withdrawal
[19] = IV-12-1 (75 mg/kg), 162 h after withdrawal
[20] = IV-12-1 (75 mg/kg), 168 h after withdrawal
[21] = IV-12-2 (75 mg/kg), 12 h after withdrawal
[22] = IV-12-2 (75 mg/kg), 18 h after withdrawal
[23] = IV-12-2 (75 mg/kg), 24 h after withdrawal
[24] = IV-12-2 (75 mg/kg), 36 h after withdrawal
[25] = IV-12-2 (75 mg/kg), 42 h after withdrawal
[26] = IV-12-2 (75 mg/kg), 48 h after withdrawal
[27] = IV-12-2 (75 mg/kg), 66 h after withdrawal
[28] = IV-12-2 (75 mg/kg), 72 h after withdrawal
[29] = IV-12-2 (75 mg/kg), 84 h after withdrawal
[30] = IV-12-2 (75 mg/kg), 90 h after withdrawal
[31] = IV-12-2 (75 mg/kg), 96 h after withdrawal
[32] = IV-12-2 (75 mg/kg), 108 h after withdrawal
[33] = IV-12-2 (75 mg/kg), 120 h after withdrawal
[34] = IV-12-2 (75 mg/kg), 138 h after withdrawal
[35] = IV-12-2 (75 mg/kg), 144 h after withdrawal
[36] = IV-12-2 (75 mg/kg), 156 h after withdrawal
[37] = IV-12-2 (75 mg/kg), 162 h after withdrawal
[38] = IV-12-2 (75 mg/kg), 168 h after withdrawal

Nc1ccc(CN2CCN(CC(=O)c3ccccc3)CC2)cc1 [IV-12, N^1-(4-aminobenzyl)-N^4-phenacyl piperazine]
Sedation (writhing model) (Kunming mice; 20 mg/kg, Table 5 summary): 97
inhibition in vivo at 20 mg/kg (Kunming mice; Mus musculus, ip, i.p. 20 mg/Kg, spontaneous activities): 97%
Defervescence effect (rats [1]): no defervescence effect
Percent in the medicine box (%) (rats [2]; 10 mg/kg i.g.): 46.1 ± 16.3%
Percent in the medicine box (%) (rats [2]; 20 mg/kg i.g.): 51.9 ± 9.8%
Percent in the medicine box (%) (rats [2]; 50 mg/kg i.g.): 62.9 ± 5.4 %
LD50 (Acute toxicity in mice): 309 mg/kg
LD50 (Acute toxicity in rats): 414 mg/kg
Weight after withdrawal compared with weight one day before withdrawal (rats [3]; IV-12-1 75 mg/kg, ♀, 18 h after withdrawal): 1.01 ± 0.03
Weight after withdrawal compared with weight one day before withdrawal (rats [3]; IV-12-1 75 mg/kg, ♀, 42 h after withdrawal): 1.02 ± 0.05
Weight after withdrawal compared with weight one day before withdrawal (rats [3]; IV-12-1 75 mg/kg, ♀, 66 h after withdrawal): 1.03 ± 0.04
Weight after withdrawal compared with weight one day before withdrawal (rats [3]; IV-12-1 75 mg/kg, ♀, 90 h after withdrawal): 1.04 ± 0.06
Weight after withdrawal compared with weight one day before withdrawal (rats [3]; IV-12-1 75 mg/kg, ♀, 114 h after withdrawal): 1.06 ± 0.06
Weight after withdrawal compared with weight one day before withdrawal (rats [3]; IV-12-1 75 mg/kg, ♀, 162 h after withdrawal): 1.08 ± 0.07
Weight after withdrawal compared with weight one day before withdrawal (rats [3]; IV-12-1 75 mg/kg, ♂, 18 h after withdrawal): 1.01 ± 0.03
Weight after withdrawal compared with weight one day before withdrawal (rats [3]; IV-12-1 75 mg/kg, ♂, 42 h after withdrawal): 1.02 ± 0.03
Weight after withdrawal compared with weight one day before withdrawal (rats [3]; IV-12-1 75 mg/kg, ♂, 66 h after withdrawal): 1.04 ± 0.04
Weight after withdrawal compared with weight one day before withdrawal (rats [3]; IV-12-1 75 mg/kg, ♂, 90 h after withdrawal): 1.06 ± 0.05
Weight after withdrawal compared with weight one day before withdrawal (rats [3]; IV-12-1 75 mg/kg, ♂, 114 h after withdrawal): 1.08 ± 0.05
Weight after withdrawal compared with weight one day before withdrawal (rats [3]; IV-12-1 75 mg/kg, ♂, 138 h after withdrawal): 1.11 ± 0.06
Weight after withdrawal compared with weight one day before withdrawal (rats [3]; IV-12-1 75 mg/kg, ♂, 162 h after withdrawal): 1.12 ± 0.09
Increase (%) of weight (rats [3]; [4]): 2.9%
Weight (rats [3]; [4]): 248.1 ± 42 g
Weight (rats [3]; IV-12-1 (75 mg/kg), 18 h after withdrawal): 250.5 ± 39 g
Increase (%) of weight (rats [3]; [5]): 2.2%
Weight (rats [3]; [5]): 246.3 ± 37 g
Weight (rats [3]; IV-12-1 (75 mg/kg), 36 h after withdrawal): 253.9 ± 38 g
Increase (%) of weight (rats [3]; [6]): 4.3%
Weight (rats [3]; [6]): 251.3 ± 37 g
Increase (%) of weight (rats [3]; [7]): 3.3%
Weight (rats [3]; [7]): 249.1 ± 36 g
Increase (%) of weight (rats [3]; IV-12-1 (75 mg/kg), 60 h after withdrawal): 7.2%
Increase (%) of weight (rats [3]; [8]): 4.8%
Weight (rats [3]; [8]): 252.8 ± 37 g
Increase (%) of weight (rats [3]; IV-12-1 (75 mg/kg), 72 h after withdrawal): 4.4%
Increase (%) of weight (rats [3]; [9]): 9.4%
Weight (rats [3]; [9]): 263.7 ± 40 g
Increase (%) of weight (rats [3]; [10]): 6.8%
Weight (rats [3]; [10]): 257.4 ± 39 g
Increase (%) of weight (rats [3]; [11]): 5.4%
Weight (rats [3]; [11]): 254.2 ± 43 g
Increase (%) of weight (rats [3]; [12]): 11.4%
Weight (rats [3]; [12]): 268.6 ± 42 g
Increase (%) of weight (rats [3]; [13]): 8.5%
Weight (rats [3]; [13]): 261.6 ± 40 g
Increase (%) of weight (rats [3]; [14]): 8.0%
Weight (rats [3]; [14]): 260.3 ± 40 g
Increase (%) of weight (rats [3]; [15]): 14.4%
Weight (rats [3]; [15]): 275.8 ± 41 g
Increase (%) of weight (rats [3]; [16]): 11.3%
Weight (rats [3]; [16]): 268.3 ± 41 g
Increase (%) of weight (rats [3]; [17]): 9.8%
Weight (rats [3]; [17]): 264.7 ± 42 g
Increase (%) of weight (rats [3]; [18]): 15.7%
Weight (rats [3]; [18]): 279.0 ± 44 g
Increase (%) of weight (rats [3]; [19]): 12.4%
Weight (rats [3]; [19]): 271.0 ± 44 g
Increase (%) of weight (rats [3]; [20]): 11.7%
Weight (rats [3]; [20]): 269.2 ± 45 g
Weight (rats [3]; IV-12-1 (75 mg/kg), before withdraw): 241.1 ± 38 g
Weight after withdrawal compared with weight one day before withdrawal (rats [3]; IV-12-2 100 mg/kg, ♀, 42 h after withdrawal): 1.01 ± 0.05
Weight after withdrawal compared with weight one day before withdrawal (rats [3]; IV-12-2 100 mg/kg, ♀, 66 h after withdrawal): 1.01 ± 0.06
Weight after withdrawal compared with weight one day before withdrawal (rats [3]; IV-12-2 100 mg/kg, ♀, 90 h after withdrawal): 1.02 ± 0.06
Weight after withdrawal compared with weight one day before withdrawal (rats [3]; IV-12-2 100 mg/kg, ♀, 114 h after withdrawal): 1.02 ± 0.07
Weight after withdrawal compared with weight one day before withdrawal (rats [3]; IV-12-2 100 mg/kg, ♀, 138 h after withdrawal): 1.04 ± 0.07
Weight after withdrawal compared with weight one day before withdrawal (rats [3]; IV-12-2 100 mg/kg, ♀, 162 h after withdrawal): 1.04 ± 0.07
Weight after withdrawal compared with weight one day before withdrawal (rats [3]; IV-12-2 100 mg/kg, ♂, 18 h after withdrawal): 0.99 ± 0.04
Weight after withdrawal compared with weight one day before withdrawal (rats [3]; IV-12-2 100 mg/kg, ♂, 42 h after withdrawal): 1.00 ± 0.04
Weight after withdrawal compared with weight one day before withdrawal (rats [3]; IV-12-2 100 mg/kg, ♂, 66 h after withdrawal): 1.00 ± 0.05
Weight after withdrawal compared with weight one day before withdrawal (rats [3]; IV-12-2 100 mg/kg, ♂, 90 h after withdrawal): 1.00 ± 0.04
Weight after withdrawal compared with weight one day before withdrawal (rats [3]; IV-12-2 100 mg/kg, ♂, 114 h after withdrawal): 1.01 ± 0.04
Weight after withdrawal compared with weight one day before withdrawal (rats [3]; IV-12-2 100 mg/kg, ♂, 138 h after withdrawal): 1.03 ± 0.06
Weight after withdrawal compared with weight one day before withdrawal (rats [3]; IV-12-2 100 mg/kg, ♂, 162 h after withdrawal): 1.04 ± 0.08
Increase (%) of weight (rats [3]; [21]): 2.0%
Weight (rats [3]; [21]): 259.8 ± 34 g
Increase (%) of weight (rats [3]; [22]): 2.0%
Weight (rats [3]; [22]): 259.8 ± 33 g
Increase (%) of weight (rats [3]; [23]): 0.4%
Weight (rats [3]; [23]): 255.9 ± 32 g
Increase (%) of weight (rats [3]; [24]): 1.9%
Weight (rats [3]; [24]): 259.5 ± 33 g
Increase (%) of weight (rats [3]; [25]): 1.4%
Weight (rats [3]; [25]): 258.5 ± 32 g
Increase (%) of weight (rats [3]; [26]): 0.8%
Weight (rats [3]; [26]): 256.8 ± 31 g
Weight (rats [3]; IV-12-2 (75 mg/kg), 60 h after withdrawal): 259.6 ± 31 g
Increase (%) of weight (rats [3]; [27]): 0.8%
Weight (rats [3]; [27]): 256.8 ± 27 g
Increase (%) of weight (rats [3]; [28]): 0.4%
Weight (rats [3]; [28]): 255.7 ± 29 g
Increase (%) of weight (rats [3]; [29]): 3.4%
Weight (rats [3]; [29]): 263.6 ± 30 g
Increase (%) of weight (rats [3]; [30]): 1.3%
Weight (rats [3]; [30]): 258.2 ± 30 g
Increase (%) of weight (rats [3]; [31]): 0.9%
Weight (rats [3]; [31]): 257.1 ± 28 g
Increase (%) of weight (rats [3]; [32]): 4.5%
Weight (rats [3]; [32]): 266.3 ± 33 g
Increase (%) of weight (rats [3]; IV-12-2 (75 mg/kg), 114 h after withdrawal): 2.1%
Increase (%) of weight (rats [3]; [33]): 1.4%
Weight (rats [3]; [33]): 258.3 ± 29 g
Weight (rats [3]; IV-12-2 (75 mg/kg), 132 h after withdrawal): 272.6 ± 35 g
Increase (%) of weight (rats [3]; [34]): 4.0%
Weight (rats [3]; [34]): 264.9 ± 32 g
Increase (%) of weight (rats [3]; [35]): 3.5%
Weight (rats [3]; [35]): 263.6 ± 32 g
Increase (%) of weight (rats [3]; [36]): 6.6%
Weight (rats [3]; [36]): 271.5 ± 40 g
Increase (%) of weight (rats [3]; [37]): 4.9%
Weight (rats [3]; [37]): 267.2 ± 38 g
Increase (%) of weight (rats [3]; [38]): 4.5%
Weight (rats [3]; [38]): 266.3 ± 36 g
Weight (rats [3]; IV-12-2 (75 mg/kg), before withdraw): 254.8 ± 32 g
